Measurements as given in US20110251220A1, “Pharmaceutical compositions comprising gamma secretase modulators” (priority 2008, published 2011).

Assays:
Format in all cases: cell-based, human
U266 cells = test: Proliferation assay (CellTiter-Glo), U266 (Notch1 negative control); conditions: U266 (lacking Notch1), 48 h treatment
Protocol: Human MM cell lines used were as follows: NCI-H929, OPM-2, LP-1, RPMI-8226, U266 (DSMZ, Braunschweig, Germany). Cell lines were cultured in RPMI 1640 medium (Biochrom, Berlin, Germany) supplemented with 10% heat-inactivated fetal calf serum (FCS, Gibco, Karlsruhe, Germany), 1 mM sodium pyruvate and 100 units/ml penicillin and 100 μg/ml streptomycin (Gibco). Human osteoclasts were obtained as described in the reference of Zavrski I, Krebbel H, Wildemann B, et al. Proteasome inhibitors abrogate osteoclast differentiation and osteoclast function. Biochem Biophys Res Commun. 2005; 333:200-205. Briefly, peripheral blood mononuclear cells (PBMC) were isolated from whole blood of healthy volunteers, using a Ficoll-Hypaque density gradient. The adherent fraction of the isolated mononuclear cells was cultured for 21 days in MEM medium (Sigma-Aldrich Chemie, Taufkirchen, Germany) supplemented with 10% FCS, 100 U/ml penicillin, 100 μg/ml streptomycin, 50 ng/ml M-CSF, and 25 ng/ml RANKL (osteoclastogenic medium), before coculture experiments and treatment with the inventive compounds started. […]
For assaying proliferation/viability of cells CellTiter-Glo Luminescent Cell Viability Assay (Promega, Mannheim, Germany) was used. In this assay the number of viable cells at a given time point is determined by quantification of ATP present, which serves as a measure of metabolically active cells. […]

[1] = test system: tartrate resistant acid phosphatase-5 (TRAP5); test: TRAP5 mRNA expression in OCL (quantitative RT-PCR); conditions: OCL after coculture with OPM-2
Protocol: In osteoclast coculture experiments, OPM-2 cells (1×10^6 cells) were added to osteoclasts in 60 mm dishes (4×10^6 cells per dish) in 3 ml MEM medium supplemented with 10% FCS, 100 U/ml penicillin, 100 μg/ml streptomycin. GSI15 (30 μM, 60 μM) or DMSO (equivalent to 60 μM) as solvent control were added to each well (daily treatment). After 48 h, 0.5 ml OPM-2 cell suspension were harvested per well and subjected to AnnexinV-FITC/PI staining. Remaining OPM-2 cells were harvested and lysed for either RNA or protein preparation. The monolayer of osteoclasts was washed twice with ice-cold PBS and then lysed for either RNA or protein preparation directly on the plate.
Quantitative real-time reverse transcription-PCR (RT-PCR) analysis was performed using the following primer/probe sets: human Hes-1 (forward—[…], reverse—[…], probe—FAM-[…]-TAMRA) human TRAP5 (forward—[…], reverse—[…], probe FAM-[…]-TAMRA), human beta2-microglobulin (forward—ccc cca ctg aaa aag atg ag, reverse—atc caa tcc aaa tgc ggc, probe—FAM-CCTGCCGTGTGAACCATGTGACTTT-TAMRA) served as normalizer. […] For the RT-PCR reaction SuperScript™ III Platinum® One-Step Quantitative RT-PCR System (Invitrogen, Karlsruhe, Germany) was used. 50 ng total RNA were used per reaction, each RNA sample was analyzed in three replicates. […] Normalized mRNA expression data were then calculated as values relative to the respective untreated sample.

MSC = test: PARP cleavage in mesenchymal stem cells (MSC), mono- and coculture; conditions: mono- and cocultures, high doses of GSI15
Protocol: Whole cell extracts were prepared and quantified as described in Jundt F, Anagnostopoulos I, Forster R, Mathas S, Stein H, Dorken B. Activated Notch1 signaling promotes tumor cell proliferation and survival in Hodgkin and anaplastic large cell lymphoma. Blood. 2002; 99:3398-3403. Proteins (30 μg) were resolved by sodium dodecyl sulfate-polyacrylamide gel electrophoresis (SDS-PAGE) and transferred to nitrocellulose membranes. Protein loading was normalized by Ponceau red staining. Membranes were incubated with monoclonal mouse anti-Notch1 antibody (no. 552466; BD Biosciences, Heidelberg, Germany), anti-Jagged1 antibody (sc-8303; Santa Cruz Biotechnology), polyclonal rabbit anti-Delta antiboday (Santa Cruz Biotechnology), polyclonal rabbit anti-cleaved PARP (Asp214) antibody (Cell Signaling Technologies, Frankfurt a.M., Germany) or mouse monoclonal anti-tubulin antibody (Sigma, Deisenhofen, Germany).
Secondary antibodies were goat anti-mouse (Promega, Mannheim, Germany), goat anti-rat (Dianova, Hamburg, Germany), and goat anti-rabbit (Santa Cruz Biotechnology) horseradish peroxidase (HRP)-conjugated antibodies. Detection was done using Pico chemi-luminescence reagent (Perbio Science, Bonn, Germany).

With CC(C)c1ccc(S(=O)(=O)Nc2cccnc2Oc2ccc(Cl)cc2)cc1 [Example 1, N-(2-(4-chlorophenoxy)pyridin-3-yl)-4-isopropylbenzenesulfonamide] the proliferation (U266 cells) was “almost not affected”, the “TRAP5 mRNA expression” value [1] was “completely blocked the upregulation of TRAP5 mRNA expression” and the “PARP cleavage (apoptosis)” value (MSC) was “Neither in OBL nor in MSC apoptosis was induced”.
